Series [1] concerns mice. Briefly: in vivo. The following applies: for tonic convulsions: lethal doses; for Ratio i.v. LD50 TA/(.): theophylline relative to compound, Table 2. The protocol: (§1) Male NMRI mice, weighing 20-26 g, starved for 8 hr. were used. The compounds, dissolved in 0.5M NaOH and 0.85% NaCl-solution (pH 10.6-12.1) were administered as follows:
(§2) (a) intravenously, 0.1 ml/10 g at an injection rate of 0.3 ml per minute
(§3) At least seven dose levels, doses increasing in a geometric progression with a factor 1.2, were examined. Each dose was given to 5 animals. […] The position of extremities in dead animals indicated whether they had died in convulsions or not. The LD50 values±standard error were calculated using probit analysis.

For series [2] the following is noted: theophylline therapy, cited from earlier work.
In the next series the test system is Guinea-Pig heart. Briefly: Isolated Guinea-Pig Hearts (Langendorff), chronotropic and inotropic potency. The following applies: relative to theophylline (= 1); for Guinea-Pig heart Potency ratios of theophylline, chronotrop: cardioacceleration; for Guinea-Pig heart Potency ratios of theophylline, inotrop: inotropic. The protocol: From the bled guinea-pigs, the hearts were immediately removed and perfused with oxygenated Krebs solution at 37° according to Langendorff. The heart was mounted in a thermostatically controlled organ bath (25 ml) containing Krebs solution. A saline-filled, open-end polyethylene catheter was inserted into the right ventricle through the pulmonary artery. The catheter was fixed to the pulmonary artery by a ligature just above the valvular plane. It was connected to a pressure transduser (P23 AC), making it possible to record changes in intraventricular pressure. From these, the contraction frequency was obtained. Drugs were given as single bolus injections into the perfusion solution.
Potency ratios for relaxing effects on isolated bronchial smooth muscle, for cardioacceleration and for i.v. acute toxicity are illustrated. The relation between therapeutic ratios for theophylline and each compound is also calculated (column to the right).

Series [3] is described as follows: in vivo. Conditions: mouse, in vivo, mice; for LD50 at 336 h: iv, i.v.; for selectivity ratio at 336 h: read-out: Ratio LD50 p.o. / LD50 i.v. The protocol:
as §1, §2, §3

A short description of series [4]: in vivo. The following applies: mouse, in vivo, po, mice, p.o.
For series [5], the system named is mice. Briefly: in vivo. The following applies: theophylline relative to compound, Table 2.
Where [6] appears, read: probit analysis, read-out: LD50 ± SE i.v.
Where [7] appears, read: probit analysis, read-out: LD50 ± SE p.o.

Entries after “also recorded” stand apart in the source; their conditions may differ. Where two headings read alike, the source gives them in different places.

For `Cn1c(=O)c2[nH]cnc2n(C)c1=O` [Theophylline, reference compound], the tonic convulsions entry in the series on mice [1] is recorded as “in lethal doses produced tonic convulsions; also recorded: convulsions which theophylline does”. Also, the major therapeutic effects result in series [2] (COAD and cardiac disease) was “relax bronchial smooth muscle and stimulate heart muscle”. In series [2], the toxic side-effects entry is “most common are nausea and gastric distress, most serious are convulsions, which may lead to death”.
Take `CCCn1c(=O)[nH]c(=O)c2[nH]cnc21` [D 4028, 3,7-dihydro-3-propyl-1H-purine-2,6-dione]: the “Guinea-Pig heart Potency ratios of theophylline, chronotrop” value in the series with Guinea-Pig heart was 2. For the same compound, in the series with Guinea-Pig heart, the “Guinea-Pig heart Potency ratios of theophylline, inotrop” value came out at 2.5. Also, the LD50 (in general, the dose at which mortality reaches 50%) at 336 h in the series “in vivo [3]” (setting [6]) is 157 ± 7.1 mg/kg; in the series “in vivo [3]” (read-out: LD50 i.v.), 810 µmol/kg; in the series “in vivo [4]” (setting [7]), 501 ± 54 mg/kg; in “in vivo [4]” (read-out: LD50 p.o.), 2550 µmol/kg. For the same compound, the selectivity ratio at 336 h in the series “in vivo [3]” was 3.1. In addition, the “Ratio i.v. LD50 TA/(.)” value in the series with mice [1] came to 1.24. The tonic convulsions result in the series on mice [1] was “without convulsive effects”. Also, the “Ratio p.o. LD50 TA/(.)” value in the series with mice [5] stood at 0.87.
With `CC(C)Cn1c(=O)[nH]c(=O)c2[nH]cnc21` [D 4030, 3,7-dihydro-3-(2-methylpropyl)-1H-purine-2,6-dione], in the series with Guinea-Pig heart, the “Guinea-Pig heart Potency ratios of theophylline, chronotrop” value was found to be 5. Besides, the “Guinea-Pig heart Potency ratios of theophylline, inotrop” value in the series with Guinea-Pig heart came out at 2. Also, the LD50 at 336 h in “in vivo [3]” (setting [6]) amounted to 109 ± 5.9 mg/kg; in “in vivo [3]” (read-out: LD50 i.v.) it was 520 µmol/kg; in “in vivo [4]” (setting [7]), 304 ± 26 mg/kg; in “in vivo [4]” (read-out: LD50 p.o.) it was 1450 µmol/kg. Besides, in the series “in vivo [3]”, the selectivity ratio at 336 h was determined as 2.8. In addition, in the series on mice [1], the “Ratio i.v. LD50 TA/(.)” value is recorded as 1.94. In addition, in the series on mice [1], the tonic convulsions entry is “without convulsive effects”. The “Ratio p.o. LD50 TA/(.)” value with mice [5] worked out at 1.53.
As for `CCCCn1c(=O)[nH]c(=O)c2[nH]cnc21` [D 4031, 3-butyl-3,7-dihydro-1H-purine-2,6-dione], the “Guinea-Pig heart Potency ratios of theophylline, chronotrop” value with Guinea-Pig heart is on record as 5. Further, the “Guinea-Pig heart Potency ratios of theophylline, inotrop” value in the series with Guinea-Pig heart was found to be 2. Further, the LD50 at 336 h was found to be 158 ± 8.8 mg/kg in “in vivo [3]” (setting [6]), 750 µmol/kg in the series “in vivo [3]” (read-out: LD50 i.v.), 408 ± 10.7 mg/kg in “in vivo [4]” (setting [7]) and 1950 µmol/kg in “in vivo [4]” (read-out: LD50 p.o.). The selectivity ratio at 336 h in the series “in vivo [3]” stood at 2.6. Also, the “Ratio i.v. LD50 TA/(.)” value with mice [1] is 1.35. The tonic convulsions entry in the series with mice [1] is on record as “without convulsive effects”. Further, the “Ratio p.o. LD50 TA/(.)” value in the series on mice [5] is 1.14.

Source of the values: patent US4804664A, “Method and pharmaceutical preparation for treating chronic obstructive airway disease and cardiac disease, and intermediates for the preparation of therapeutically active xanthine derivatives” (priority 1978, dated 1989).
